Source: patent publication US20180304191A1, “METHOD FOR THE SELECTIVE REMOVAL OF HYDROGEN SULFIDE” (BASF SE, priority 2015, published 2018)

Legend:
[1] = Dynamic viscosity (Anton Paar Stabinger SVM3000 viscometer); assay type: physicochemical
Procedure: The dynamic viscosities of various compounds were measured in a viscometer (Anton Paar Stabinger SVM3000 viscometer).
In addition, the dynamic viscosities of various absorbents (without acid gas loading) were measured in the same instrument.

[2] = pKA determination by titration with hydrochloric acid (pH at half-equivalence); settings: for pKA1: 1st dissociation stage; for pKA2: 2nd dissociation stage
Excerpt: Measurement was accomplished using a thermostated closed jacketed vessel in which the liquid was blanketed with nitrogen. The Hamilton Polylite Plus 120 pH electrode was used, which was calibrated with pH 7 and pH 12 buffer solutions.

[3] = Thermal stability (decomposition level of the amine in acid-gas-laden absorbent); assay type: physicochemical; settings: 160° C., 125 h, 30% by weight amine solution
Procedure: A Hastelloy cylinder (10 mL) was initially charged with the absorbent (30% by weight amine solution, 8 mL) and the cylinder was closed. […] The acid gas loading of the solutions was 20 m^3 (STP)/tsolvent of CO2 and 20 m^3 (STP)/tsolvent of H2S. The decomposition level of the amines was calculated from the amine concentration measured by gas chromatography before and after the experiment.

[4] = absorbent: amine 30% by wt. in EG 70% by wt., without acid gas loading
[5] = absorbent: amine 30% by wt. in sulfolane 70% by wt., without acid gas loading

| Compound | Dynamic viscosity [1, 4] [mPa · s] | Dynamic viscosity ([1]; amine compound itself) [mPa · s] | Dynamic viscosity [1, 5] [mPa · s] | pKA1 ([2]; 0.01 mol/kg amine, 20° C.) | pKA2 ([2]; 0.01 mol/kg amine, 20° C.) | Dynamic viscosity ([1]; absorbent: amine 30% by wt. in TEG 70% by wt., without acid gas loading) [mPa · s] | pKA3 ([2]; 0.01 mol/kg amine, 20° C., 3rd dissociation stage) | Thermal stability (comparison in words) [3] | ΔpKA1 (120-20° C.) ([2]; difference of pKA1 between 120° C. and 20° C.) |
| --- | --- | --- | --- | --- | --- | --- | --- | --- | --- |
| CCC(N)(CO)CO [AEPD, 2-amino-2-ethylpropane-1,3-diol, reference compound] | 25.3 | 1844 | – | – | – | – | – | – | – |
| CN(C)CCOCCN(C)C [BDMAEE, bis(2-(N,N-dimethylamino)ethyl) ether] | 12.3 | 0.9 | 3.6 | 9.7 | 8.2 | – | – | – | – |
| CN(C)CCN(C)CCN(C)C [PMDETA, pentamethyldiethylenetriamine] | – | 1.0 | – | 10.3 | 8.8 | 15.3 | 6.5 | – | – |
| CC(C)(C)NCCOCCO [TBAEE, 2-(2-tert-butylaminoethoxy)ethanol, reference compound] | 17.2 | 16.9 | – | – | – | – | – | – | – |
| CN(C)CCOCCNC(C)(C)C [TBAEEDA, 2-(2-tert-butylaminoethoxy)ethyl-N,N-dimethylamine] | – | 1.5 | 5.5 | 10.4 | 8.4 | – | – | higher thermal stability than MDEA | 2.4 |
